Laboratory results published in patent US10906904B2, “ADO-resistant cysteamine analogs and uses thereof” (HORIZON ORPHAN LLC, priority 2015, dated 2021).
Where two headings read alike, the source gives them in different places.

Experiments:
[1] = Dimethyl sulfide (DMS) detection in rat whole blood following oral compound administration; assay type: in vivo; details: rat, in vivo, po, 150 mg/kg
Description: Male Sprague Dawley (SD) rats (200-250 g) were housed in cages under a 12 hour light/dark cycle with free access to food and water. Temperature and humidity were controlled according to UK Home Office regulations. For oral (po) administration, test compounds were formulated in water at a concentration of 30 mg/mL, to provide a dose of 150 mg/kg when administered orally in a 5 mL/kg dosing volume. Following compound or water (vehicle) administration to rats (n=15 per compound), terminal blood samples (>5 mL) were taken by cardiac puncture under CO2 at defined time-points post oral dosing (pre-dose, 0.25 hour, 0.5 hour, 1 hour and 2 hour). Blood was placed in sealed heparinized Eppendorf tubes on wet ice and stored at 4° C. prior to analyzing DMS levels by gas chromatography (GC).
For each sample of rat blood, 1 mL was added to an evacuated 20 mL GC-Headspace vial containing tetrahydrofuran (THF) internal standard. Headspace vials were sealed with a crimp cap and septum (to prevent the vaporization of volatile sulfur compounds into the open air) and thoroughly vortex mixed. All samples were processed using gas chromatography to measure DMS levels. In short, sulfur containing compounds were thermally liberated into the gas carrier stream and injected (1 μL) into the gas chromatography column (30 m×0.32 mm DB-624 1.8 μm). Under these conditions, the retention time for dimethyl sulfide (DMS) and THF internal standard were approximately 1.83 minutes and 3.82 minutes respectively.
For each analyzed blood sample, the ratio of DMS peak area to THF peak area was calculated. For the DMS calibration curve and assay linearity checks, this ratio was graphically plotted against the concentration of reference DMS standards (blank, 60 nM, 180 nM, 360 nM, 600 nM, 1200 nM, 1800 nM and 3000 nM). The concentration of DMS in each blood sample was calculated from the equation produced by this plot by linear regression analysis. […].

[2] = system: St-HdhQ^111/111 cells; assay: Glutamate-induced neuronal excitotoxicity assay; assay type: cell-based; details: 6 mM L-glutamate 24 hours, % of effect of 100 μM cysteamine; for viability at 10 µM / viability at 100 µM: STHdhQ111; for viability at 10 µM: read-out: HdhQ^111/111 cell % survival (mean ± STD) Test Conc. 10 μM; for viability at 100 µM: read-out: HdhQ^111/111 cell % survival (mean ± STD) Test Conc. 100 μM
Description: The ability of test compounds to inhibit glutamate-induced excitotoxicity (neuroprotection) in St-HdhQ^111/111 cells was determined by incubating compounds with cells for 60 min at 33° C., 95% (v:v) air/5% (v:v) CO2 in Dulbecco's Modified Eagle Media. Following this, excitotoxicity was induced by the addition of 6 mM L-glutamate for 24 hours. Cell viability was assessed by measuring ATP levels using a luminescent-based CellTitre Glo assay (Promega). Compound neuroprotection (% cell survival) was expressed as a % of the effect recorded with 100 μM cysteamine (denoted as 100% cell survival).

[3] = Cystine reactivity assay; details: 30° C., percentage of 3 mM cysteamine
Description: Cystine reactivity was assessed by incubating 3 mM test compound with 100 nM BODIPY® FL L-Cystine (Life Tech.) at 30° C., pH 7.4 in phosphate buffer. […] Compound cystine reactivity was expressed as a percentage of that of 3 mM cysteamine.
Under resting conditions, the inherent fluorescence of BODIPY® FL L-cystine was very low due to the spatial proximity of the two BODIPY molecules causing quenching. Under chemical reaction (disruption of the S—S bond), the spatial distance was increased, the quenching lost, and measured fluorescence increased. Time (minutes) vs. fluorescence (relative fluorescence units—RFU) was plotted and linear regression analysis was performed to generate a slope value corresponding to the reaction rate in RFU/min and an R2 value.

[4] = biological target: T1, human recombinant ADO (Homo sapiens, UniProt Q96SZ5); assay type: in vitro ADME; details: human, 15 mM
T1 sequence (Q96SZ5 1-270): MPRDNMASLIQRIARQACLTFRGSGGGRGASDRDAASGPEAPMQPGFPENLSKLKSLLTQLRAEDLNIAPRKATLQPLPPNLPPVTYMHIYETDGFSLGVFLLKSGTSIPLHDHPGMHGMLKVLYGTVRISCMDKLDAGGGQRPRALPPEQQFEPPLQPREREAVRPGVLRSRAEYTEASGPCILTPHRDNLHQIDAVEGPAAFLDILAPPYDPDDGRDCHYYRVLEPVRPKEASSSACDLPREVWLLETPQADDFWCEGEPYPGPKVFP
Description: The rate of ADO metabolism was determined by incubating 15 mM test compound with 60 μg/ml human recombinant ADO and 20 nM MitoXpress® O2-sensitive fluorescent probe (Luxcel) at 37° C. in assay buffer/salt in a sealed assay chamber. The initial rate of fluorescence (excitation λ380 nm and emission λ650 nm) increase was used to measure ADO-dependent oxygen depletion activity. The ability of ADO to metabolize compounds and concomitantly consume oxygen was expressed relative to that of 15 mM cysteamine.

[5] = system: cystinotic human fibroblasts; assay: Cystine depletion assay; assay type: cell-based; details: relative to cystine depletion by cysteamine (100%) at a similar concentration; for Emax: Homo sapiens, Fibroblast, 1 h
Description: The ability of test compounds to deplete cystine from cystinotic human fibroblasts (Coriell) was determined by incubating compounds with cells for 60 min at 37° C., 95% (v/v) air/5% (v/v) CO2 in Minimal Essential Media Eagle. Treated cell samples were subsequently harvested, then homogenized to ensure plasma and lysosomal membrane disruption. Protein was removed by acid precipitation and cystine in the supernatant measured using LC-MS/MS and HILIC chromatography. Protein levels were determined and cystine levels reported as nM per mg/ml protein. Cystine levels after test compound treatment were expressed as a percentage of that of untreated control cells.
Compounds were assayed at a concentration of 50 μM or 100 μM according to the general methods described above.
Cystine depletion levels for the compounds are expressed in Table 4 as a percent relative to the cystine depletion achieved by cysteamine (c.f. cysteamine 100%) at a similar concentration.
Cystine depletion levels for each of the compounds in Table 5 are expressed as a percent relative to the cystine depletion achieved by cysteamine (c.f. cysteamine 100%) at a similar concentration.

[6] = Table 4, read-out: Cystine Depletion (%)
[7] = Table 5, read-out: Cystine Depletion (%) Mean Value

SC[C@@H]1CCCN1 (stereo in doubt) [Compound 42210]
Mean DMS levels (nM) ± STD, Time 1 hr ([1]; male, Sprague Dawley, 1 h): <60 nM | Mean DMS levels (nM) ± STD, Time 2 hr ([1]; male, Sprague Dawley, 2 h): <60 nM | viability at 10 µM ([2]; 10 μM): 7 ± 6% | viability at 100 µM ([2]; 100 μM): 105 ± 8% | Cystine Reactivity Assay (30° C.) (%) Mean Value ([3]; Table 4): >90% | Cystine Reactivity Assay (30° C.) (%) Mean Value ([3]; Table 5): >90% | ADO Metabolism Assay (%) Mean Value [4]: <25% | Emax [5, 6]: 87% | Emax [5, 7]: 89%

SC[C@H]1CCCN1 [Compound 42211]
viability at 10 µM ([2]; 10 μM): 2 ± 9% | viability at 100 µM ([2]; 100 μM): 84 ± 19% | Cystine Reactivity Assay (30° C.) (%) Mean Value ([3]; Table 4): >90% | ADO Metabolism Assay (%) Mean Value [4]: <25% | Emax [5, 6]: 79%

SC1CCNCC1 [Compound 41188]
Mean DMS levels (nM) ± STD, Time 1 hr ([1]; male, Sprague Dawley, 1 h): <60 nM | Mean DMS levels (nM) ± STD, Time 2 hr ([1]; male, Sprague Dawley, 2 h): <60 nM | viability at 10 µM ([2]; 10 μM): 20 ± 6% | viability at 100 µM ([2]; 100 μM): 105 ± 11% | Cystine Reactivity Assay (30° C.) (%) Mean Value ([3]; Table 4): 59-90% | ADO Metabolism Assay (%) Mean Value [4]: <25% | Emax [5, 6]: 87%

SCC1CCNCC1 [Compound 145586]
viability at 10 µM ([2]; 10 μM): 9 ± 6% | viability at 100 µM ([2]; 100 μM): 89 ± 9% | Cystine Reactivity Assay (30° C.) (%) Mean Value ([3]; Table 5): 50-90% | ADO Metabolism Assay (%) Mean Value [4]: <25% | Emax [5, 7]: 21%

OC1(CS)CCNCC1 [Compound 145610]
viability at 10 µM ([2]; 10 μM): 11 ± 8% | viability at 100 µM ([2]; 100 μM): 87 ± 10% | Cystine Reactivity Assay (30° C.) (%) Mean Value ([3]; Table 5): <50% | ADO Metabolism Assay (%) Mean Value [4]: <25% | Emax [5, 7]: 11%

S[C@@H]1CCNC1 [Compound 42617]
viability at 10 µM ([2]; 10 μM): 7 ± 10% | viability at 100 µM ([2]; 100 μM): 89 ± 7% | Cystine Reactivity Assay (30° C.) (%) Mean Value ([3]; Table 4): 59-90% | ADO Metabolism Assay (%) Mean Value [4]: <25% | Emax [5, 6]: 101%

SC1CC2CCC(C1)N2 (stereo not drawn) [Compound 42494]
viability at 10 µM ([2]; 10 μM): 0% | viability at 100 µM ([2]; 100 μM): 28 ± 17% | Cystine Reactivity Assay (30° C.) (%) Mean Value ([3]; Table 4): 59-90% | ADO Metabolism Assay (%) Mean Value [4]: <25% | Emax [5, 6]: 88%

N[C@H]1C[C@@H](S)C1 [Compound 42457]
viability at 10 µM ([2]; 10 μM): 6 ± 5% | viability at 100 µM ([2]; 100 μM): 91 ± 6% | Cystine Reactivity Assay (30° C.) (%) Mean Value ([3]; Table 4): 59-90% | Cystine Reactivity Assay (30° C.) (%) Mean Value ([3]; Table 5): 50-90% | ADO Metabolism Assay (%) Mean Value [4]: <25% | Emax [5, 6]: 108% | Emax [5, 7]: 77%

N[C@H]1C[C@@H](CS)C1 [Compound 145587]
viability at 10 µM ([2]; 10 μM): 52 ± 9% | viability at 100 µM ([2]; 100 μM): 97 ± 7% | Cystine Reactivity Assay (30° C.) (%) Mean Value ([3]; Table 5): >90% | ADO Metabolism Assay (%) Mean Value [4]: <25% | Emax [5, 7]: 13%

S[C@H]1CCCNC1 [Compound 42247]
viability at 10 µM ([2]; 10 μM): 5 ± 8% | viability at 100 µM ([2]; 100 μM): 84 ± 13% | Cystine Reactivity Assay (30° C.) (%) Mean Value ([3]; Table 4): >90% | ADO Metabolism Assay (%) Mean Value [4]: <25% | Emax [5, 6]: 96%

SC[C@H]1CCCCN1 [Compound 145590]
viability at 10 µM ([2]; 10 μM): 14 ± 7% | viability at 100 µM ([2]; 100 μM): 90 ± 11% | Cystine Reactivity Assay (30° C.) (%) Mean Value ([3]; Table 5): >90% | ADO Metabolism Assay (%) Mean Value [4]: <25% | Emax [5, 7]: 104%

CCN1CCCC1 [Compound 145611]
viability at 10 µM ([2]; 10 μM): 24 ± 13% | viability at 100 µM ([2]; 100 μM): 94 ± 8% | Cystine Reactivity Assay (30° C.) (%) Mean Value ([3]; Table 5): <50% | ADO Metabolism Assay (%) Mean Value [4]: <25% | Emax [5, 7]: 9%

S[C@H]1CCNC1 [Compound 42616]
viability at 10 µM ([2]; 10 μM): 5 ± 7% | viability at 100 µM ([2]; 100 μM): 56 ± 7% | Cystine Reactivity Assay (30° C.) (%) Mean Value ([3]; Table 4): 59-90% | ADO Metabolism Assay (%) Mean Value [4]: <25% | Emax [5, 6]: 79%

CCOC(=O)C1(S)CCCNC1 (stereo not drawn) [Compound 42493]
viability at 10 µM ([2]; 10 μM): 6 ± 10% | viability at 100 µM ([2]; 100 μM): 87 ± 10% | Cystine Reactivity Assay (30° C.) (%) Mean Value ([3]; Table 4): 50-90% | ADO Metabolism Assay (%) Mean Value [4]: <25% | Emax [5, 6]: 74%

SC1CNC1 [Compound 41446]
Mean DMS levels (nM) ± STD, Time 1 hr [1]: <60 nM | Mean DMS levels (nM) ± STD, Time 2 hr [1]: <60 nM | HdhQ^111/111 cell % survival (mean ± STD) Test Conc. 10 μM ([2]; 10 μM): 6 ± 9% | HdhQ^111/111 cell % survival (mean ± STD) Test Conc. 100 μM ([2]; 100 μM): 101 ± 11% | Cystine Reactivity Assay (30° C.) (%) Mean Value ([3]; Table 5): >90% | Cystine Depletion (%) ([5]; Table 4): 82% | Cystine Depletion (%) Mean Value ([5]; Table 5): 82%

SCC1CCCNC1 (stereo not drawn) [Compound 145588]
viability at 10 µM ([2]; 10 μM): 9 ± 9% | viability at 100 µM ([2]; 100 μM): 98 ± 5% | Cystine Reactivity Assay (30° C.) (%) Mean Value ([3]; Table 5): >90% | ADO Metabolism Assay (%) Mean Value [4]: <25% | Emax [5, 7]: 31%
